Assay results: patent US20240374546A1, “USES AND METHODS FOR PROMOTING INCREASED MITOCHONDRIAL MASS AND FUNCTION” (Brightseed, Inc., priority 2022, published 2024)

Key:
PPARγ mRNA = experiment: qPCR mouse liver, PPARγ mRNA; format: in vivo; details: HFD+NCT vs HFD; to the level of normal chow
Experimental: (§1) Total RNA was isolated from liver tissues and primary human hepatocytes using Trizol (Invitrogen). cDNA was amplified using 3 μg of total RNA using qScript cDNA SuperMix (Quanta BioSciences, Beverly, MA, USA). Quantitative real time PCR (RT-PCR) analysis was performed using SYBR® Select Master Mix (Applied Biosystems) and an ABI 7900HT thermal cycler (Applied Biosystems, Thermo Fisher Scientific). Ct values were normalized to 18s rRNA and are expressed as fold change over samples from mice fed NC or cultured human hepatocytes without NCT.

TNFα mRNA = experiment: qPCR mouse liver, TNFα mRNA; format: in vivo; details: HFD+NCT vs HFD
Experimental: as §1

[1] = Oil red O staining of liver sections; format: in vivo, mouse; details: HFD+NCT vs HFD, 10 weeks
Experimental: Oil red O staining was performed as described previously (34). Slides containing frozen liver tissue sections from mice were air dried for 10-20 min followed by rehydration in distilled water. Sections were immersed in absolute propylene glycol (Cat #151957, MP Biomedicals, LLC, USA) for 2 min followed by 0.5% in Oil red O solution (Cat #K043, Poly Scientific R&D, USA) for 2 hours. Slides were then differentiated in 85% propylene glycol solution, washed with dH2O for 2 hours, and mounted using glycerin jelly mounting medium. All slides were scanned at a magnification of 20× using the Aperio Scanscope FL system (Aperio Technologies Inc., Vista, CA, USA). The liver area stained with oil red O was measured using image J software as described, with some modifications as follow, Oil red O-stained liver images were opened in Image J software. Using the Analyze>Set Scale command, the scale bar of the images was set to 200 um. RGB images were then converted into gray scale images using the Image>Type>RGB Stack command and were split into red, blue and green channels. Using the Image >Adjust>Threshold command, the threshold was manually set to highlight the Oil red O stained lipid droplets in the green channel. […] Fold change was calculated by normalizing the values to images from mice fed normal chow.

PPARGC1A (PGC1α) = experiment: Western blot, mouse liver, PPARGC1A; format: in vivo; details: ten weeks of oral NCT
Experimental: (§2) Mouse liver extracts were prepared by incubation in RIPA buffer (Invitrogen) containing protease inhibitors (Calbiochem, San Diego, CA). Protein was quantified by BCA assay (Thermo Scientific). Protein ([…] for cytochrome C) was separated on 12% or 16% Tri-Glycine gels (Invitrogen) and transferred to Immobilon P membrane (0.2 μm pore size, Millipore). After 1 hour in phosphate-buffered saline-Tween (PBST) with 3% milk, membranes were incubated with antibodies to PPARGC1A(PGC1α) (Cat #NBP1-04676, Novus, 1:1000), SDHA XP (Cat #11998, Cell Signaling 1:1000), or Cytochrome C (Cat #4280, Cell Signaling 1:500), followed by secondary antibody conjugated to horseradish peroxidase (1:5000, Jackson Immune or Cell Signaling). […] After detection, membrane was incubated with Ponceau S solution (Sigma) for 1 hr for normalization to loaded protein.

PPARGC1A mRNA = experiment: qPCR primary human hepatocytes, PPARGC1A mRNA; format: cell-based; details: NCT 5, 15, 40 μM
Experimental: (§3) Experiments with primary human hepatocytes were performed by CN-Bio (Cambridge, UK). Briefly, primary human hepatocytes (PHHs), human Kupffer cells (HKs) and human stellate cells (HSCs) were seeded onto CN-Bio's PhysioMimix LC12 MPS culture plates at 6×10^5 cells for PHHs and 6×10^4 cells for HKs and HSCs in 1.6 ml of CN-Bio's HEP-lean media with 5% FCS. Throughout the experiment the cells were maintained at a flow rate of 1 μl/s. After 24 hours (Day 1) of seeding, the media was changed to HEP-lean media and the cells were incubated until day 4 to allow the cells to form microtissues. At day 4 post seeding, media was changed to HEP-fat media and treated with DMSO or NCT (5, 15, 40 μM). Media was replaced on days 6 and 8. Cells were harvested on day 10 for RNA extraction and culture media was collected for ELISA analysis.
as §1

SDHA mRNA = experiment: qPCR mouse liver, SDHA mRNA; format: in vivo; details: HFD+NCT vs HFD
Experimental: as §1

cytochrome C = experiment: Western blot, mouse liver, cytochrome C; format: in vivo; details: HFD+NCT vs HFD
Experimental: as §2

Microsomal stability = format: in vitro ADME; details: human microsomes compared with rodent
cytochrome C mRNA = experiment: qPCR primary human hepatocytes, cytochrome C mRNA; format: cell-based; details: NCT 5, 15, 40 μM
Experimental: as §3, §1

HNF4α = target: T1, HNF4α (Mus musculus, UniProt P49698); experiment: Immunofluorescence of hepatic HNF4α in HFD mice; format: in vivo; details: oral NCT in HFD chow, 10 weeks
T1 construct: from tissue; host or cells: liver of C57BL/6J mice
T1 sequence (P49698 whole entry): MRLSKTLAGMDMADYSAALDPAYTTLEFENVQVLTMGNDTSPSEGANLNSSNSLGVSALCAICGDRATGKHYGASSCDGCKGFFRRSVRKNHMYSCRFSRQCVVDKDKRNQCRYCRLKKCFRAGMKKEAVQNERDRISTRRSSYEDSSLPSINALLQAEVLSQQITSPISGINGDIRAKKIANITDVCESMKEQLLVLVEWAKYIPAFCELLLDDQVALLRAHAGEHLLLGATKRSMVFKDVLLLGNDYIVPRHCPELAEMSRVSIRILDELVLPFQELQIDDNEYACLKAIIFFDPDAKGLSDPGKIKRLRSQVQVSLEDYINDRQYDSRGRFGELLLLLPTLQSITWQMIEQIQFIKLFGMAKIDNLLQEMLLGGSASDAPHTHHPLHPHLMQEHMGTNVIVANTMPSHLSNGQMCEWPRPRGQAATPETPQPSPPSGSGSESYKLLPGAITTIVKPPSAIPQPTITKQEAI
Experimental: Frozen liver sections were permeabilized using 0.3% Triton-X and incubated in antigen retrieval solution (Antigen retrieval citrate, Biogenex) at sub-boiling temperature for 10 min. Subsequently, sections were incubated with blocking buffer containing 5% normal donkey serum (Jackson Immuno Research) followed by incubation overnight at 4° C. with mouse anti-HNF4α monoclonal antibody (1:800, Cat #PP-H1415-00, R&D Systems), rabbit polyclonal anti-VDAC antibody (1:400, cat #PA1-954A, Invitrogen) and cleaved caspase3 antibody (1:500, cat #9664, Cell Signaling). Sections were washed and incubated for 1 hour at room temperature with anti-mouse secondary antibody coupled with Alexa fluor 488 (1:400, Invitrogen) and antirabbit secondary antibody coupled with rhodamine red. Nuclei were visualized by counterstaining with DAPI (40,6-diamidino-2-phenylindole, Sigma Aldrich). Slides were mounted using fluorescence mounting medium and images were obtained at 40× magnification using an Olympus IX71 fluorescence microscope. Fluorescence intensity of HNF4α-stained nuclei and VDAC stained mitochondria was calculated using MetaMorph TL software (version 7.6.5.0, Olympus). Fold change was calculated by normalizing to values from mice fed NC.

[2] = Free fatty acid quantification in serum; format: in vivo, mouse; details: HFD+NCT vs HFD, 10 weeks
Experimental: Blood samples were collected from dextrose injected mice and centrifuged to collect serum samples. The serum FFA level was measured according to manufacturer's instructions using a Free Fatty Acid Quantification Colorimetric/Fluorometric Kit (Cat #K612, BioVision, USA). Fold change was calculated by normalizing to values from mice fed NC.

IL-6 mRNA = experiment: qPCR mouse liver, IL-6 mRNA; format: in vivo; details: HFD+NCT vs HFD
Experimental: as §1

Compound: O=C(/C=C/c1ccc(O)c(O)c1)NCCc1ccc(O)cc1 [NCT, N-transcaffeoyltyramine]
- PPARγ expression in mouse liver (PPARγ mRNA): dramatically reduced
- TNFα mRNA in mouse liver (TNFα mRNA): significantly reduced
- Oil Red O staining of liver [1]: decreased Oil Red O staining
- PPARGC1A protein in mouse liver (PPARGC1A (PGC1α)): increased
- PPARGC1A mRNA in primary human hepatocytes (PPARGC1A mRNA): increased
- SDHA mRNA in mouse liver (SDHA mRNA): increased
- hepatic cytochrome C protein level (HFD-induced decrease) (cytochrome C): reversed
- microsomal stability, human versus rodent microsomes (Microsomal stability): much more stable
- cytochrome C mRNA in primary human hepatocytes (cytochrome C mRNA): but not cytochrome C
- hepatic HNF4α expression (HFD-induced decrease) (HNF4α): reversed
- circulating free fatty acid (FFA) [2]: no difference
- IL-6 mRNA in mouse liver (IL-6 mRNA): significantly reduced
